In PubChem BioAssay AID1159563 (GlaxoSmithKline (GSK), 2015) one finds IC50 data, which are given here for 90 compounds.

Structures are written as SMILES. Activity calls are given as the source filed them. The rule behind the calls is not given here.

The test system of the assay is HepG2 cytotoxicity. As to the kind of experiment: human hepatoma cell viability loss – cytotoxicity control (AID 1159563).
`CN(C)S(=O)(=O)c1ccc(Cl)c(C(=O)Nc2nc(-c3ccccn3)cs2)c1`: the IC50 (as a rule, the concentration at which inhibition is half-maximal) is > 100 µM (inactive).

Regarding `N#Cc1ccc(Br)cc1[N+](=O)[O-]`, the 50% inhibitory concentration (IC50) is 20 µM.

On to `N#Cc1cccc(CNc2ccc(-c3cnn(CC4CC4)c(=O)c3C#N)cc2)c1`, for which the IC50 was > 100 µM (inactive).

Consider `COc1ccc(C(=O)N2CCC(Nc3cccnc3)C2)c(OC)n1` (stereo not given), for which the IC50 was > 100 µM (inactive).

For the compound `O=C(Nc1nc2cc(Cl)ccc2o1)c1cccc(Cl)c1`, the IC50 is > 100 µM (inactive).

`CC(Cn1ccnc1)NC(=O)COc1ccc(Cl)c(Cl)c1` (stereo not given): the IC50 was > 100 µM (inactive).

For the compound `Cc1c(Nc2cc(C3CC3)[nH]n2)ccc(C#N)c1Cl`, the IC50 is 40 µM.

With `O=C(Nc1ncc([N+](=O)[O-])s1)C1CC1`, the IC50 is > 100 µM (inactive).

`COc1cnc2ccc(=O)n(CCN3CCC(NC(=O)Cc4ccc(Cl)c(Cl)c4)CC3)c2c1`: the IC50 was 63 µM.

In the case of `OC[C@@H](Nc1nccc(-c2c(-c3ccc(F)cc3)ncn2C2CCNCC2)n1)c1ccccc1`, the IC50 was 100 µM.

As for `O=C(C1CCCCC1)N1CCN(c2nnc(-c3ccccc3)c3ccccc23)CC1`, the IC50 is > 100 µM (inactive).

Consider `Cn1ccnc1CN1CCc2[nH]cnc2C1c1ccccc1OCc1ccccc1` (stereo not given), for which the IC50 was > 100 µM (inactive).

Take `CN(Cc1nc2ccccc2s1)C(=O)C=Cc1cc2ccccc2o1`: the IC50 was > 100 µM (inactive).

With `Cc1cc(NC(=O)CC2CCCCC2)n(-c2nc3c(c(=O)[nH]2)CCC3)n1`, the IC50 was > 100 µM (inactive).

As to `Nc1nc(-c2ccccc2)cc(-c2nc3ncccc3[nH]2)n1`, the IC50 is 40 µM.

Take `O=C(Nc1nc(-c2ccccn2)cs1)N1C[C@H]2C[C@@]2(c2ccccc2)C1`: the IC50 is 25 µM.

Consider `c1ccc(Nc2nc(-c3ccccn3)cc(N3CCOCC3)n2)cc1`, for which the IC50 was > 100 µM (inactive).

Consider `Cc1ccc2c(c1)-c1onc(C(=O)N3CCCCC3c3cccnc3)c1CO2` (stereo not given), for which the half-inhibitory concentration (IC50) is 50 µM.

Take `CC(C)C[C@H](NC(=O)c1csc(-c2cccs2)n1)C(=O)NC1(C#N)CC1`: the IC50 was > 100 µM (inactive).

With `Cc1[nH]n2c(=O)c3c(nc2c1-c1ccc(F)cc1)CCCC3`, the IC50 was > 100 µM (inactive).

For `Cc1cc(C)cc(NS(=O)(=O)c2cc(-c3cc(C)[nH]n3)ccc2C)c1`, the IC50 was 63 µM.

For the compound `c1ccc(-c2nc(NC3CCCC3)c3ccccc3n2)nc1`, the half-maximal inhibitory concentration (IC50) was 16 µM.

With `O=C(CC1(O)C(=O)N(Cc2cccs2)c2ccc(Br)cc21)c1cccnc1` (stereo not given), the IC50 was 63 µM.

On to `O=[N+]([O-])c1ccc(C2=CC(c3ccccc3)=NCCN2)cc1`, for which the IC50 is 50 µM.

In the case of `O=C(c1cccc(Nc2ncc(-c3ccc4c(c3)OCO4)cn2)c1)N1CCOCC1`, the IC50 is > 130 µM (inactive).

On to `CCOc1ccc2nc(NC(=O)c3ccc([N+](=O)[O-])s3)sc2c1`, for which the 50% inhibitory concentration (IC50) is 32 µM.

`N#Cc1cccc(Cc2cc(Nc3cc(C4CC4)[nH]n3)nc(N3CC[C@H]3C(N)=O)n2)c1`: the IC50 was > 100 µM (inactive).

As for `CCN(Cc1cccs1)C(=O)CSc1nnc(-c2ccc3c(c2)OCO3)o1`, the IC50 is > 100 µM (inactive).

Consider `O=C(Nc1cccc(F)c1)N1CCC(Oc2cccc(-c3cccnc3)c2)CC1`, for which the IC50 is > 100 µM (inactive).

Turning to `CC(C)(C)C(Cn1ccnc1)NC(=O)c1ccc2nc(C3CC3)oc2c1` (stereo not given), the IC50 is > 100 µM (inactive).

Consider `O=S(=O)(NCC(c1cccnc1)N1CCN(c2ccc(F)cc2)CC1)c1cccs1` (stereo not given), for which the IC50 was > 100 µM (inactive).

For the compound `N#Cc1cc(-c2ccnc(Nc3cccc(CN4CCOCC4)c3)n2)ccc1NCCN`, the IC50 is 50 µM.

For `Cc1nc(N2CCC(C(=O)N3CCC(O)(c4cccnc4)CC3)CC2)nc2ccc(C(C)C)cc12`, the 50% inhibitory concentration (IC50) was 79 µM.

For `O=C(Nc1ccc(Br)c(Cl)c1)Nc1ccc2c(c1)OCO2`, the IC50 was > 100 µM (inactive).

In the case of `COCCn1c(-c2ccccc2)cnc1NCc1ccccc1OC`, the IC50 is 20 µM.

With `COc1cccc(-c2c(C)nn(-c3nc(N)nc(-c4ccccn4)n3)c2N)c1`, the IC50 is > 100 µM (inactive).

As to `NS(=O)(=O)c1ccc(CNC(=O)c2ccc([N+](=O)[O-])s2)cc1`, the IC50 is 16 µM.

As for `O=C(NCC1CCCCN1C(=O)c1cccc2ccccc12)c1ccccc1` (stereo not given), the IC50 was > 100 µM (inactive).

Take `O=C1CSC(c2cccnc2)N1c1ccc(Cl)cc1Cl` (stereo not given): the IC50 is > 100 µM (inactive).

For `CN1CCC(N(C)c2nccc(N3CCN(C(=O)c4cccc(-c5cccnc5)c4)CC3)n2)CC1`, the IC50 is 40 µM.

Turning to `COc1cccc(C(=O)[C@H]2C[C@@H]2CN(Cc2cccnc2)Cc2cccnc2)c1`, the IC50 is > 100 µM (inactive).

For `CCCc1cc(N)nc(-c2cc(CCC)cc(N)n2)c1`, the IC50 was 32 µM.

For the compound `O=C(NCCc1csc(-c2ccc(F)cc2)n1)c1ccco1`, the IC50 was > 100 µM (inactive).

Consider `CCOc1cnn(C)c(=O)c1Nc1ccc(C(=O)NCc2ccc(F)cc2)cc1`, for which the IC50 is > 100 µM (inactive).

`O=C1NCCn2ccc(Nc3nc(NC4CCC(O)CC4)ncc3Cl)c21` (stereo not given): the IC50 was > 100 µM (inactive).

As to `CC(C)COC(=O)Nc1ccc(N2CCC(CNS(=O)(=O)c3ccccc3)CC2)c(F)c1`, the IC50 is > 100 µM (inactive).

`Cc1nc(-c2nc(NCc3ccc(Cl)cc3)c3cccnc3c2O)n[nH]1`: the half-maximal inhibitory concentration (IC50) is 16 µM.

`Cc1cccc(N2CCCN(Cc3c[nH]c4ccccc34)CC2)n1`: the IC50 is 13 µM.

`Cc1cc(NC(=O)C2CC2)ccc1OC1CCN(Cc2ccco2)CC1`: the 50% inhibitory concentration (IC50) is 50 µM.

For `Cc1ccc(NC(C)C(=O)Nc2ccc(C#N)cc2)cc1S(=O)(=O)N1CCCCC1` (stereo not given), the IC50 was 79 µM.

On to `CCCCn1nnnc1CSc1nc(C)cc(C)c1C#N`, for which the IC50 is > 100 µM (inactive).

In the case of `Cc1cc2nc(CN(C)Cc3ncccc3C)[nH]c2cc1C`, the concentration for half-maximal inhibition (IC50) was 40 µM.

As for `CCc1cccc(CC)c1-n1c(SCC(=O)N2CC(=O)Nc3ccccc32)nnc1-c1cccnc1`, the IC50 was > 100 µM (inactive).

As to `CC1(Oc2cncc(Cl)c2)CCN(Cc2cc3ccccc3[nH]2)C1` (stereo not given), the IC50 was 32 µM.

As for `Cc1nc(C(=O)Nc2ccc3c(c2)OCO3)nn1-c1ccc(F)cc1`, the IC50 was > 100 µM (inactive).

In the case of `CCc1ccccc1[C@@H](C)NC(=O)c1cnc2c(cnn2CC)c1NC1CCN(C(N)=O)CC1`, the IC50 is > 100 µM (inactive).

For `Cc1cc(Oc2cc(Cl)c(Cl)cc2Cl)n2ncnc2n1`, the IC50 is 32 µM.

Regarding `Cn1cncc1CN1CCC2(CC1)COC(Cc1ccccc1)C2` (stereo not given), the IC50 is > 100 µM (inactive).

As for `Cc1[nH]nc(Nc2ccnc3[nH]ccc23)c1C`, the IC50 is > 100 µM (inactive).

Consider `COc1ccc(NS(=O)(=O)c2ccc(S(=O)(=O)N(C)C3CCCCC3)cc2)c2ncccc12`, for which the IC50 is > 100 µM (inactive).

For `CCOc1ccccc1C(=O)Nc1nnc(-c2ccc3c(c2)OCO3)s1`, the IC50 is > 100 µM (inactive).

As for `CCOc1cc(NCCCN2CCN(C)CC2)c2ncccc2c1`, the half-maximal inhibitory concentration (IC50) was 32 µM.

Turning to `CC(C)N(C(=O)CN1C(=O)C(N)C(=O)N(c2ccccc2)c2ccccc21)c1ccccc1` (stereo not given), the IC50 is > 100 µM (inactive).

Consider `Cc1nc2c(-c3nc(-c4ccc(N)cc4)n[nH]3)cccn2c1C`, for which the IC50 is 16 µM.

For `N#Cc1cccc(CN2CCC(c3nc(-c4ccc(C(F)(F)F)nc4)no3)CC2)c1`, the IC50 was > 100 µM (inactive).

As for `CCOC(=O)c1cn[nH]c1S(=O)(=O)N1CCC1c1ccccc1` (stereo not given), the IC50 was > 100 µM (inactive).

On to `N#Cc1cccc(Nc2nccc(N3CCC(NS(=O)(=O)c4cccc(C#N)c4)CC3)n2)c1`, for which the IC50 is 50 µM.

Regarding `O=C(Nc1ccc(-c2nc3ccccc3c(=O)[nH]2)cc1)c1cccs1`, the IC50 is > 100 µM (inactive).

For `Nc1nc(-c2ccccn2)nc(N)c1Cc1c(F)cccc1Cl`, the 50% inhibitory concentration (IC50) is 20 µM.

Regarding `O=C(Nc1n[nH]c(-c2ccccn2)n1)C1CC1c1ccccc1` (stereo not given), the IC50 was > 100 µM (inactive).

Regarding `Cc1cnc(Nc2cc(Cc3ccccc3)nc(NC3CCC(O)CC3)n2)s1` (stereo not given), the IC50 is 25 µM.

As to `Cc1nnnn1-c1cccc(C(=O)N2CCC[C@@]3(C)c4ncncc4CCC23)c1` (stereo not given in full), the IC50 was > 100 µM (inactive).

Take `O=C(NCCc1cccnc1)c1csc(-c2ccccc2)n1`: the IC50 was > 100 µM (inactive).

For the compound `Cc1ccccc1NS(=O)(=O)c1ccc2[nH]cc(C(=O)NC3CCCC3)c(=O)c2c1`, the IC50 was 25 µM.

Regarding `CCCN1CCN(Cc2ccc(S(=O)(=O)Nc3cccc(C)c3)cc2)CC1`, the IC50 was > 100 µM (inactive).

Turning to `CC(C)(C)c1cc(NC2CC2)nc(-c2ccccn2)n1`, the IC50 is > 100 µM (inactive).

For the compound `CC1CCCCN1C(=O)NCCc1coc(-c2ccc(F)cc2)n1` (stereo not given), the IC50 was > 100 µM (inactive).

As to `Cc1ccc(S(=O)(=O)Nc2ccc(CN3CCN(C(=O)c4cccc(C#N)c4)CC3)cc2)cc1`, the IC50 was > 100 µM (inactive).

Regarding `CNc1cc(C)nc(C2CN(C(=O)c3n[nH]c4ccccc34)CCO2)c1` (stereo not given), the IC50 is > 100 µM (inactive).

Take `O=C(CCCn1cnc([N+](=O)[O-])n1)Nc1cccc(Cl)c1`: the IC50 is > 100 µM (inactive).

As to `CN1CCCN(C(=O)c2ccc(N3CCCC3)cc2Cl)CC1`, the IC50 was > 100 µM (inactive).

As to `c1cncc(CN(Cc2ccco2)Cc2cn[nH]c2-c2cccs2)c1`, the IC50 is > 100 µM (inactive).

With `O=S(=O)(c1ccccc1C(F)(F)F)N1CCN(Cc2ccc(-n3ccnc3)cc2)CC1`, the IC50 was > 100 µM (inactive).

In the case of `COc1cccc(-c2cc(C(F)(F)F)nc(-n3ccc([N+](=O)[O-])n3)n2)c1`, the IC50 is > 100 µM (inactive).

On to `O=c1[nH]cnc2c([C@@H]3O[C@H](CO)[C@@H](O)[C@H]3O)[nH]nc12`, for which the IC50 is > 100 µM (inactive).

In the case of `Cc1c(C(=O)NCCCCn2ccnc2)oc2c(C)cccc12`, the IC50 is 79 µM.

On to `Fc1ccc(Nc2nc(-c3ccccn3)cs2)cc1`, for which the IC50 was > 100 µM (inactive).

Consider `CNc1c(C(N)=O)c(-c2ccc3scnc3c2)nn1CC(F)(F)F`, for which the IC50 was > 100 µM (inactive).

On to `CNc1nc(C)nc(N2CCc3cc(C(=O)NCc4ccc(-c5ccn[nH]5)cc4Cl)ccc32)n1`, for which the IC50 is > 100 µM (inactive).

With `Cn1nccc1NC(=O)Cn1ccc(-c2ccncc2)n1`, the IC50 was > 100 µM (inactive).
